Test results as given in paper PMC7822874, “Chemoprotective antimalarials identified through quantitative high-throughput screening of Plasmodium blood and liver stage parasites” (Scientific Reports, 2021).

What was measured:
[1] = tested on: Plasmodium falciparum Dd2 asexual blood stage parasites; assay: microbe, parasite or virus in culture; parameters: species or system Plasmodium falciparum Dd2 in human erythrocytes; single determination (one 11-point concentration-response curve); settings: Plasmodium falciparum, DD2, Erythrocyte, 72 h; read-out: AC50
in vitro = settings: human, n = 1

Row | Structure (SMILES) | AC50 [1] [µM] | CC50 at 48 h (in vitro; HepG2 cells) [µM] | CC50 at 48 h (in vitro; hepg2) [µM]
1 | COc1ccccc1CNC[C@@H]1C=C(C)[C@H](Cc2nc3cccc(C)c3[nH]2)C[C@H]1C(C)C [NCGC00392078-01] | 9.68 | 44.4 | 
2 | O=C(Nc1nc(-c2ccccn2)cs1)c1ccc(F)c(S(=O)(=O)N2CCOCC2)c1 [MLS002162137-01] | 2.11 | 10.9 | 
3 | CCN(CC)[S+](=O)([O-])c1ccc(NC(=O)CCc2c(C)nc3cc(-c4ccc(Cl)cc4)nn3c2C)cc1 [NCGC00110055-01] | 4.73 | 27.3 | 
4 | Fc1ccc(Nc2nc3nonc3nc2Nc2cccc(C(F)(F)F)c2)cc1 [NCGC00117664-01] | 1.68 | 4.32 | 
5 | CN(C)CC(O)COc1ccc(C(C)(C)c2ccc(OCC(O)CN(C)C)cc2)cc1 (stereo not drawn) [MLS001073934-01] | 8.41 | 21.7 | 
6 | COc1cccc(C(NC(C)=O)c2ccc3cccnc3c2O)c1 (stereo not drawn) [MLS001204096-01] | 4.22 | 12.2 | 
7 | O=C1C=CC(Br)=CC1=CNNC(=O)c1ccncc1 [MLS000778139-01] | 9.44 | 12.2 | 
8 | O=C(Cc1c[nH]c2ccccc12)N1CCc2c([nH]c(-c3ccc(F)cc3)nc2=O)C1 [NCGC00439989-01] |  | 0.00432 | 
9 | Nc1nc(-c2ccccn2)nc(N)c1Cc1ccccc1F [MLS000691905-01] | 13.3 | 27.3 | 
10 | O=C(Nc1ccc(Cl)cc1)c1nc2c(o1)CCN(Cc1cccc(O)c1)CC2 [NCGC00413336-01] |  | 17.7 | 
11 | CCCCC(=O)NC(c1ccc(C(C)C)cc1)c1ccc2cccnc2c1O (stereo not drawn) [MLS001204647-01] | 7.5 | 15.3 | 
12 | COc1ccc(CCNc2nc3c(c(=O)n(C)c(=O)n3C)n2Cc2ccc(F)cc2)cc1OC [NCGC00102121-01] |  | 13.7 | 
13 | CCOC(=O)C1=C(c2ccccc2)N=C(N)NC1c1ccc(OCc2ccc(Cl)cc2)c(OC)c1 (stereo not drawn) [MLS000771452-01] |  | 34.3 | 
14 | C=C1C(=O)O[C@@H]2C[C@@H](C)[C@@H]3C=CC(=O)[C@@]3(C)[C@@H](OC(=O)CC(=O)O[C@H]3[C@@H]4C(=C)C(=O)O[C@@H]4C[C@@H](C)[C@@H]4C=CC(=O)[C@]43C)[C@H]12 [MLS000728515-01] |  |  | 10.9
15 | Oc1c(C(Nc2ccccn2)c2ccccc2F)ccc2cccnc12 (stereo not drawn) [NCGC00135751-01] | 9.44 | 27.3 | 
16 | COc1ccc2[nH]c(C[C@@H]3C[C@@H](C(C)C)[C@H](CNCc4ccccn4)C=C3C)nc2c1 [NCGC00391900-01] | 0.769 | 7.03 | 
17 | CCOC(=O)c1ccc(Nc2nc3nonc3nc2Nc2cccc(C)c2C)cc1 [NCGC00117662-01] | 8.41 | 10.9 | 
18 | COc1cnc(-c2ccccn2)nc1Sc1ccc(Cl)cc1 [MLS000325700-01] | 5.96 | 24.3 | 
19 | Cc1cc(C)n(CCC(=O)N2CC(Oc3ccc(-c4nc(-c5ccccc5)no4)cc3)C2)n1 [NCGC00441169-01] |  | 10.9 | 
20 | Cc1c(NN=C(C#N)C(=O)c2ccccc2)c(=O)n(-c2ccccc2)n1C [MLS000567622-01] | 6.68 | 12.2 | 
21 | O=C(NCC1CC1)c1nc2c(o1)CCN(Cc1cccc(F)c1)CC2 [NCGC00413365-01] |  | 44.4 | 
22 | Cc1sc(NC(=O)c2ccco2)c(C(c2cccnc2)N2CCC(C)CC2)c1C (stereo not drawn) [MLS000536186-01] | 5.31 | 8.62 | 
23 | CCOCc1cc(CN2CCN(c3ccccc3OC)CC2)c(O)c2ncccc12 [NCGC00114940-01] | 5.96 | 9.68 | 
24 | COc1cc(OC)cc(C(=O)Oc2c(CN3CCOCC3)cc(Cl)c3cccnc23)c1 [MLS000770997-01] |  | 12.2 | 

Row | Structure (SMILES) | AC50 [1] [µM] | CC50 at 48 h (in vitro; HepG2 cells) [µM] | CC50 at 48 h (in vitro; hepg2) [µM]
25 | O=C(Oc1c(CN2CCOCC2)cc(Cl)c2cccnc12)c1ccccc1Br [MLS000770987-01] | 7.5 | 19.3 | 
26 | CN(C)CCNC(=O)c1nc2nc(-c3ccccc3)c(-c3cccc(F)c3)cc2n1C [NCGC00417874-01] | 19.3 | 31.4 | 
27 | FC(F)(F)c1cccc(Nc2nc3nonc3nc2Nc2ccc(Cl)cc2)c1 [NCGC00100377-01] | 0.75 | 3.85 | 
28 | Cc1cc(Cl)ccc1-c1ccc(CNC2CN(C(=O)OC(C)(C)C)C2)cc1 [NCGC00374248-01] |  | 34.3 | 
29 | CC(=O)c1cccc(N[S+](=O)([O-])c2cc(-c3cnc(C4CC4)o3)ccc2C)c1 [NCGC00131168-01] |  | 30.6 | 
30 | CC(=O)NC(c1ccccc1)c1cc(Cl)c2cccnc2c1O (stereo not drawn) [MLS001210949-01] |  | 12.2 | 
31 | CCCOC(=O)c1[nH]c2c(c1C)C(=O)CC(c1cc(OC)c(OC)c(OC)c1)C2 (stereo not drawn) [MLS000116504-01] | 6.68 | 21.7 | 
32 | O=C(NNc1ccnc2cc(Cl)ccc12)C1CCCCC1 [MLS000770801-01] | 7.5 | 12.2 | 
33 | CC(NNC(=O)C12CCC(C)(C(=O)O1)C2(C)C)=C1C=CC=CC1=O (stereo not drawn) [MLS000778293-01] |  | 12.2 | 
34 | CCCOc1ccc(C(=O)Nc2ccc(-c3cc4ccccc4oc3=O)c(C)c2)cc1 [NCGC00098245-01] |  | 24.3 | 
35 | COc1ccc(/C=N/Nc2cc(C)nc(-n3nc(C)cc3C)n2)c(OC)c1 [MLS000589396-01] | 5.31 | 24.3 | 
36 | COc1cnc(-c2ccccn2)nc1N(C)c1ccccc1 [MLS001166302-01] | 5.96 | 13.7 | 
37 | c1ccc(-c2nc(NCc3ccco3)c3ccccc3n2)nc1 [MLS000040057-01] | 5.96 | 27.3 | 
38 | CCCCOCc1cc(CN2CCN(c3cccc(Cl)c3)CC2)c(O)c2ncccc12 [NCGC00114972-01] | 6.68 | 17.2 | 
39 | Oc1ccccc1C(Nc1nccs1)c1ccc2cccnc2c1O (stereo not drawn) [MLS000759877-01] |  | 19.3 | 
40 | CCNc1nc2c(c(=O)n(C)c(=O)n2C)n1Cc1ccc(F)cc1 [NCGC00142036-01] |  | 21.7 | 
41 | COC1=CC=CC(=CNNc2cc(N3CCOCC3)ncn2)C1=O [MLS001202693-01] |  | 12.2 | 
42 | COc1ccc(-c2nc(CC3CCN(C(=O)c4n[nH]c(=O)c5ccccc45)C3)no2)cc1 (stereo not drawn) [NCGC00443252-01] |  | 19.3 | 
43 | CC(C)OCc1cc(CN2CCN(c3cccc(C(F)(F)F)c3)CC2)c(O)c2ncccc12 [NCGC00114970-01] | 6.68 | 10.9 | 
44 | CCc1ccc(NC(=O)N2CC(C(=O)N(C)C)C3(CCOCC3)C2)cc1 (stereo not drawn) [NCGC00471776-01] |  | 0.00769 | 
45 | O=C(/C(=C/c1ccc(Cl)cc1)c1nc2ccccc2[nH]1)c1cccs1 [MLS000565128-01] | 2.11 | 24.3 | 
46 | CCOC(=O)c1cnc(-n2nc(C)cc2C)nc1NNc1nc(-c2ccccc2)cc(-c2ccccc2)n1 [MLS000580862-01] | 2.11 | 19.3 | 
47 | CC(C)c1cccc(NC(=O)c2ccc(CN3C(=O)NC4(CCOCC4)C3=O)cc2)c1 [NCGC00454607-01] |  | 24.3 | 
48 | Cc1cc(NCc2ccccn2)n2nc(C)c(-c3ccc(Cl)cc3)c2n1 [MLS000559839-01] |  | 9.68 | 

Row | Structure (SMILES) | AC50 [1] [µM] | CC50 at 48 h (in vitro; HepG2 cells) [µM] | CC50 at 48 h (in vitro; hepg2) [µM]
49 | CC(C)c1cc(C(=O)NC2CCN(c3ncccc3C#N)CC2)n(C)n1 [NCGC00431169-01] |  | 19.3 | 
50 | CC1CCN(S(=O)(=O)c2ccc3c(c2)C(=NO)c2cc(S(=O)(=O)N4CCC(C)CC4)ccc2-3)CC1 [MLS000551434-01] | 1.68 |  | 21.7
51 | COc1cc(C(=O)N/N=C(/c2ccccc2)c2ccccn2)cc(OC)c1OC [MLS000390992-01] |  | 10.9 | 
52 | CCn1c(C)nc2cc(-c3nc4n(n3)Cc3ccccc3-4)ccc21 [MLS000054270-01] |  | 12.2 | 
53 | Cc1nn(-c2ccc(C(C)C)cc2)c(C)c1[C@@H]1C=C[C@@H](NCc2ccccc2)C1 [NCGC00392636-01] | 21.7 | 44.4 | 
54 | c1ccc(Oc2nc(-c3ccccn3)nc3ccccc23)cc1 [MLS000769533-01] | 7.5 | 9.68 | 
55 | c1csc(-c2ccnc(N[C@H]3CO[C@H]4[C@@H]3OC[C@@H]4NCC3CCCCC3)n2)c1 [NCGC00395181-01] | 12.2 | 49.8 | 
56 | COc1ccccc1Nc1c2c(nc3ccc(NC(=O)/C=C/c4cccc(OC)c4OC)cc13)CCCC2 [NCGC00104013-01] | 5.96 | 30.6 | 
57 | O=C(c1ccc2[nH]ccc2c1)N1CCC2(CC1)NC(c1ccc(Br)cc1)=NO2 [NCGC00446987-01] |  | 24.3 | 
58 | Cc1cc(O)c(-c2cc(C(=O)Nc3ccc(S(=O)(=O)N4CCOCC4)cc3)[nH]n2)cc1C [MLS000042703-01] | 1.68 | 27.3 | 
59 | O=C(CCCCCCC(=O)Nc1ccccc1)NO [NCGC00168085-01] |  | 19.3 | 
60 | Cc1ccc(Nc2nc3nonc3nc2Nc2cccc(C(F)(F)F)c2)cc1Cl [NCGC00117632-01] | 2.11 | 4.32 | 
61 | O=S(=O)(c1ccc(Cl)cc1)N1CCN(Cc2ccc(O)c3ncccc23)CC1 [MLS000774708-01] | 13.3 | 10.9 | 
62 | COCCN1Cc2ccc(NCC(C)C)nc2C(C)(C(=O)Nc2cccc(F)c2)C1 (stereo not drawn) [NCGC00414615-01] |  | 35.3 | 
63 | COc1ccc(Nc2nc(N3CCCCC3)c3ccccc3n2)cc1 [MLS000569818-01] |  | 30.6 | 
64 | CCC(C)NC(=O)N1CC(Oc2ccc(-c3noc(C4CCOCC4)n3)cc2)C1 (stereo not drawn) [NCGC00458059-01] |  |  | 12.2
65 | O=C(Cc1ccccc1F)N1CC(Oc2ccc(-c3noc(-c4cccnc4)n3)cc2)C1 [NCGC00458031-01] |  | 19.3 | 
66 | N#Cc1c(Cl)nsc1NC(=O)c1ccccc1 [MLS000696348-01] |  | 13.7 | 
67 | O=C1C=CC(Cl)=CC1=CNNC(=O)c1ccncc1 [MLS000766661-01] |  | 12.2 | 
68 | CCCCC(=O)NC(c1ccc(Cl)cc1Cl)c1ccc2cccnc2c1O (stereo not drawn) [MLS001212967-01] |  | 21.7 | 
69 | CC1=C[C@@H](CN2CCN(c3ccccn3)CC2)[C@H](C(C)C)C[C@H]1Cc1nnc(C)o1 [NCGC00392770-01] |  | 35.3 | 
70 | CC1=CC(=CNNC(=O)c2n[nH]cc2Br)C(=O)C=C1 [MLS000555044-01] |  | 19.3 | 
71 | COc1cnc(-c2ccccn2)nc1Sc1ccccc1 [MLS000692209-01] |  | 24.3 | 
72 | C=C1C(=O)OC2CC(C)C3C=CC(=O)C3(C)C(O)C12 (stereo not drawn) [MLS002701927-01] |  |  | 15.3
